Measurements published in patent publication US20250090498A1, “TREATMENT OF PRIMARY CTLA-4 CHECKPOINT RELATED IMMUNODEFICIENCIES” (ADIENNE PHARMA & BIOTECH SA, priority 2023, published 2025).

System: pathology after acute treatment with anti-CTLA-4 monoclonal antibody
Test: acute anti-CTLA-4 treatment in 8-10 week-old Il10−/− mice, without DSS
Assay type: in vivo
Description: Il10^−/− mice were treated with anti-CTLA-4 monoclonal antibody and 3-IAld alone, as above (FIG. 6), without DSS. Animals were monitored daily for body weight and inflammatory pathology in the colon and sacrificed at 14 days after the first anti-CTLA-4 monoclonal antibody administration.

With `O=Cc1c[nH]c2ccccc12` [3-IAld, 1H-indole-3-carbaldehyde] the “pathology after acute anti-CTLA-4 treatment (overall)” value (3-IAld) was “protects”, the body weight loss (3-IAld as in the DSS model, 14 days) was “prevented” and the “inflammatory pathology (colon)” value (3-IAld, 14 days) was “ameliorated”. The “massive cellular infiltrate (submucosa)” value (3-IAld, 14 days) was “reducing”.
